The values below come from US11951167B2, “Targeted liposomes” (GEORGETOWN UNIVERSITY, priority 2012, dated 2024).

Test [1] concerns U87MG-Luc xenograft brain tumors. The experiment in a line: Intracranial tumor growth (BLI, MRI), scL-p53 plus TMZ. The class given is in vivo, nude mice. Conditions: TMZ 5.0 mg/kg, scL-p53 30 ug DNA/mouse, i.v. 2x/week, 10 injections. The protocol:
An experiment was performed to examine tumor growth inhibition induced by the sensitization of IC brain tumors to TMZ by systemic administration of scL-p53 prepared as described in U.S. Pat. No. 7,780,882. U87MG-Luc xenograft brain tumors were induced in nude mice by intracranially inoculating U87MG-luc cells. This cell line, obtained from Caliper Life Sciences, has been modified to stably express the Luciferase gene. 10 days post-inoculation, tumor-bearing animals were i.v. tail vein injected with TMZ alone (5.0 mg/kg/injection), scL-p53 alone (30 ug DNA/mouse/injection) or TMZ in combination with scL-p53. As a control, one group received PBS (vehicle). All i.v. injections were administered 2×/week to a total of 10 injections. To assess tumor response, bioluminescence imaging (BLI) was performed using IVIS® Imaging System's Xenogen. FIG. 24 is a comparison of in vivo anti-tumor efficacy of the various groups. Bioluminescence signals which correlate to tumor size are shown in a color map. Red color (at the top of the scale bar): the stronger signal, Violet color (at the bottom of the scale bar): the weaker signal. […] The horizontal bar indicates the duration of treatment (Last treatment=Day 24).
To confirm the bioluminescence findings, the mice were also imaged by MRI, without contrast agent, before and after the mice received 3 weeks of treatment. […]

A further test has as its system U87 cells. The experiment in a line: XTT cell viability, Lip-TMZ vs free TMZ. The class given is cell-based, human.
In a further test the test system is T98G cells. The test is described as follows: XTT sensitization of TMZ resistant cells by scL-p53. The class given is cell-based, human. The settings on record: XTT 72 h after TMZ addition. The protocol:
(§1) However, as only a subset of brain tumor patients respond to TMZ it was more critical to assess the ability of scL-p53 to sensitize TMZ resistant tumors to this chemotherapeutic agent. Thus, to assess the ability of scL delivered wtp53 to sensitize TMZ resistant brain tumor cells to this first-line chemotherapeutic agent, human brain tumor derived LN-18 and T98G cells were treated with TMZ alone, or the combination of TMZ plus scL-p53 (FIG. 23). As a control, cells were also treated with the combination of TMZ and the scL delivery system carrying the same vector used to construct the pSCMVp53 plasmid, but without the p53 insert (scL-vec). The cells were plated in a 96-well plate and treated 24 hours later with scL-p53 or scL-vec. 24 hours post-transfection, the TMZ was added in increasing concentrations. […] As shown in FIG. 23 with LN-18 cells, after transfection with scL-p53 these TMZ resistant cells are now responding to even very low doses of TMZ. […] With the T98G cells (FIG. 23), although not as responsive as to TMZ as LN-18 after treatment with scL-p53, these highly resistant cells are also sensitized to the killing effects of this drug.

Another test concerns LN-18 cells. Described as above. The class given is cell-based, human. Conditions: XTT 72 h after TMZ addition. The protocol: as §1
For orientation: Tetrazolium assays rely on reduction of a dye to a coloured formazan, in cell work by metabolically active cells.

Test [2] concerns glioblastoma multiforme / anaplastic astrocytoma. Conditions: cited from earlier work.

In general, IC50 refers to the concentration needed to halve the response being measured.

Consider `Cn1nnc2c(C(N)=O)ncn2c1=O` [TMZ, temozolomide], for which, in test [1], the “IC tumor growth during treatment (BLI)” value is reported as “some minimal effect”. Also, in the test on U87 cells, the cell killing effect entry was “virtually no cell killing effect”. Also, the IC50 in the test with T98G cells is ~2000 µM. Further, in the test with LN-18 cells, the “dose of TMZ until which no significant cell death is observed” value is ~1000 µM. Moreover, in test [2] (human, in vivo), the “AA patients who do not benefit from TMZ” value is given as 50% and the “GBM patients who do not benefit from TMZ” value is 60-75%. The “median increase in survival compared to radiation alone” value in test [2] (subset of GBM patients) is reported as 2.5 months.
